Measurements from the METLIN SMRT retention time set (Domingo-Almenara et al. 2019).

Experiment: gradient 5% acetonitrile 3 min, to 50% in 2 min, to 85% in 15 min, held 3 min, 100 µL/min
Details: column: Zorbax Extend-C18 2.1 x 50 mm; eluents: water / acetonitrile, 0.1% formic acid
How it was run: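 Each retention time is based on an adduct peak selected computationally and verified by manual inspection. Measurements used HPLC–quadrupole time-of-flight mass spectrometry in positive and negative ionization mode on mixtures of ~100 pure standards. Chromatography ran on a Zorbax Extend-C18 column (2.1 × 50 mm, 1.8 μm) at 100 μL/min with water and acetonitrile, each containing 0.1% formic acid, and dead and dwell volumes of 40 μL and 900 μL.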

SMILES | RP-LC retention time [s]
O=c1oc2cc(O)ccc2cc1-c1ccc(F)cc1 | 852
O=C(c1cc(Cl)ccc1Cl)N(CCc1cccs1)C1CC1 | 1070
COc1ccc(CCNC(=O)CSc2c[nH]c3ccccc23)cc1OC | 717
CN1C(=O)c2ccccc2Oc2ccc(C(=O)NCc3ccc(Br)cc3)cc21 | 955
CC1=C(c2ccccc2)S(=O)(=O)N=C1N1CCCN(C(=O)Nc2ccccc2)CC1 | 669
CCOc1ccccc1NC(=O)N1CCc2cn(CCOC)c3cccc(c23)C1 | 827
O=C(NCC1COc2ccccc2O1)C(=O)Nc1cccc(Br)c1 (stereo not given) | 1030
CN(CC1CCOC1)S(=O)(=O)Cc1ccccc1F (stereo not given) | 755
Cc1cc(NC(=O)c2c(O)c3cccnc3n(-c3ccccc3)c2=O)ccc1F | 1160
O=C([C@@H]1C[C@H](Oc2cccnc2)CN1C(=O)C1CCC1)N1CCCC1 | 565
CCOc1ccc(CCNC(=O)c2nc(CCS(=O)(=O)c3ccccc3)no2)cc1OCC | 900
Cc1cc(C)n(CC(=O)N2CCCCC2c2nc(C3CC3)no2)n1 (stereo not given) | 741
Cn1c(=O)c(SCC(=O)NCc2cccc(Cl)c2)nc2ccccc21 | 819
COc1cccc(-c2nc(C3CCN(S(=O)(=O)c4cccc(C)c4)CC3)no2)c1 | 1150
Clc1ccccc1-c1noc(Cc2nnc(-c3ccccc3)o2)n1 | 978
O=C(c1ccc2c(c1)OCCO2)N1CCCCC1 | 839
Cc1cc(C)c(S(=O)(=O)N2CCCC2c2nc(-c3ccccc3C)no2)c(C)c1 (stereo not given) | 1330
CCOC(=O)c1nc(Nc2ccc(OCC)cc2)c2ccccc2n1 | 806
CCOC(=O)C(C)Oc1cccc2c(=O)n(CC(=O)Nc3ccc([N+](=O)[O-])cc3)ccc12 (stereo not given) | 842
CN(c1nc2ccccc2s1)C1CCN(C[C@H](O)COc2ccc(F)c(F)c2)CC1 | 777
CC(C)(C)c1cc(C(=O)NC2CCCC2)nc2ccnn12 | 1150
Cc1sc(C)c(S(=O)(=O)Nc2cccc(F)c2)c1-c1cc(C(F)(F)F)on1 | 1140
Cc1ccc(N2CCC(NC(=O)NC(C)(C)C)C2=O)cc1 (stereo not given) | 761

SMILES | RP-LC retention time [s]
COc1ccc2[nH]cc(CCN3CC(C(=O)Nc4cccc(C)c4C)CC3=O)c2c1 (stereo not given) | 771
O=C(NC1CCCCC1)C1CCN(c2ncccc2-c2nc(-c3ccc(Cl)cc3)no2)CC1 | 1230
Cc1nnn(C23CC4CC(CC(C(=O)N5CCN(c6ccccn6)CC5)(C4)C2)C3)n1 | 597
Cc1cc(OC(C)C(=O)N[C@H](C(=O)O)c2ccccc2)c2c3c(c(=O)oc2c1)CCC3 (stereo not given in full) | 843
Cc1ccc(NC(=O)N2CCC(OC3CCN(S(C)(=O)=O)CC3)CC2)cc1F | 792
CCCNC(=O)CCc1nc2ccccc2n(CC(=O)Nc2cccc(SC)c2)c1=O | 819
Cc1ccccc1-c1noc(-c2nnn3c2COC(c2ccc(F)cc2)C3)n1 (stereo not given) | 1000
Cc1ccc(NC(=O)N2CCc3c(c(-c4nnc(-c5ccc(F)cc5)o4)nn3C)C2)c(Cl)c1 | 944
COc1ccc(-c2cc3c(=O)n(CC(=O)N4CCN(c5ccccn5)CC4)nc(C)n3n2)cc1 | 663
CN1C(=O)CCS(=O)(=O)C1c1ccc(Cl)cc1 (stereo not given) | 759
CCOCCCNC(=O)N1CCN(c2nc3ccccc3n(Cc3ccc(C)cc3)c2=O)CC1 | 1010
CCS(=O)(=O)NCC1CCN(C(=O)COc2ccccc2)CC1 | 659
Cc1cccc(NC(=O)N2CCN(c3cc(C)nc(N4CCOCC4)n3)CC2)c1 | 623
CCCc1ccc(S(=O)(=O)N2CCC3(CC2)NCCCN=C3NC2CCCC2)cc1 | 857
Cc1oc(-c2[nH]ncc2C(=O)N2CCOCC2)cc1S(=O)(=O)N1CCN(C)CC1 | 553
CC(CCc1ccco1)NC(=O)C1CCc2nc(N3CCCCC3)ncc2C1 (stereo not given) | 777
Cc1ccccc1OCC(=O)N1CCCC1c1nc(-c2cccc(Cl)c2)no1 (stereo not given) | 1150
CCCn1c(=O)sc2cc(S(=O)(=O)N3CCC(C(=O)NC4CCCC4)CC3)ccc21 | 890
Cc1cc(C(=O)N2CCC3(CCC3O)CC2)c(C)o1 (stereo not given) | 683
CCc1ccc(NC(=O)N2C[C@@H]3CN(S(=O)(=O)c4ccccc4)C[C@H](C2)O3)cc1 | 851
Oc1cccc(-c2nc3cnccn3c2Nc2ccccc2)c1 | 710
Cc1ccc(NC(=O)N2CCC(N3CCN(Cc4ccccc4)C3=O)CC2)cc1Cl | 938
CCOC(=O)Cn1c(C2CC(=O)N(c3ccc(Cl)cc3)C2)nc2ccccc21 (stereo not given) | 858

SMILES | RP-LC retention time [s]
O=C(CCc1ccccc1)Nc1nnc(C2CC(=O)N(c3ccc(Cl)cc3)C2)o1 (stereo not given) | 805
CN(C)CC1(O)CCC2(CCN(C(=O)c3ccsc3)CC2)CC1 | 576
O=C(NCC1CCCO1)c1cccc(Nc2c(-c3ccccc3)nc3cnccn23)c1 (stereo not given) | 679
O=C(CSc1ccc(S(=O)(=O)c2ccccc2)nn1)Nc1ccc2c(c1)OCCO2 | 821
O=S(=O)(NC1(c2nc(-c3ccsc3)no2)CCCCC1)c1ccc2c(c1)OCCO2 | 954
COc1ccc(-c2nnc3n2CCN(Cc2cccc(C#N)c2)C3)cc1 | 667
CO/N=C1/C=C(C)C(=O)C(C)=C1C | 1040
Cc1nc(OCC(=O)NCc2ccc(F)cc2)c2ccccc2n1 | 705
CN(C)c1cccc(-c2nc(-c3cn(-c4ccc(F)cc4)nn3)no2)c1 | 1100
CC1CCCCN1CCCNC(=O)CCCN1C(=O)CCn2nc(-c3cccn3C)cc21 (stereo not given) | 545
CCSc1ccccc1C(=O)Nc1cccc2ccc(OC)nc12 | 1200
O=C(Cc1ccc(F)cc1)NC(c1ccccc1)c1nnc(N2CCOCC2)o1 (stereo not given) | 743
CCOc1ccc(NC(=O)c2cnn(-c3ccc(Br)cc3)c2)cc1 | 1030
Cc1ccc(CNC(=O)c2ccc3c(c2)CC(=O)N3C)cc1C | 765
CCCn1c(C2CCN(C(=O)c3sccc3C)C2)nc2cccnc21 (stereo not given) | 716
O=C(Nc1ccc(F)cc1F)c1cnc(-c2ccccc2)nc1-c1ccncc1 | 874
O=C(NCC1CCOCC1)Nc1ccc(F)c(Cl)c1 | 728
Cc1ccc2nc(-c3ccccc3)c(Nc3ccc(Cl)cc3)n2c1 | 755
CC(C)[C@H](CO)Nc1nc(Sc2cccc(N)c2)c2ncn(C(C)C)c2n1 | 706
CC(C(=O)N1CCN(Cc2ccc3c(c2)OCO3)CC1)n1c2ccccc2c2cnn(C)c(=O)c21 (stereo not given) | 669
Cc1ccc(C)c(S(=O)(=O)N2CCC(F)(c3nc(CC(C)C)no3)CC2)c1 | 1270
Cc1ccc(-n2c(N3CCCC(C(=O)Nc4ccc(F)c(F)c4)C3)nc3ccsc3c2=O)cc1 (stereo not given) | 1050
Cc1cc2[nH]c(C(=O)Nc3ccc(Cl)cc3F)c(CN3CCOCC3)c2s1 | 759

SMILES | RP-LC retention time [s]
O=C(CCCS(=O)(=O)Cc1ccccc1)Nc1nc2c(s1)Cc1ccccc1-2 | 841
CCOCCCNC(=O)C(Cc1c[nH]c2ccccc12)NC(=O)C1CCC(C)CC1 (stereo not given) | 839
CS(=O)(=O)N1CCCc2cc(C(=O)NCc3ccco3)ccc21 | 742
Cn1cnnc1SCCNC(=O)c1ccc(OCC(=O)C2CC2)cc1 | 603
COC(=O)c1cnc2nc(C)ccc2c1Nc1ccc(Br)cc1 | 705
COCc1nc2cccnc2n1C1CCN(C(=O)Nc2ccc3c(c2)OCCO3)CC1 | 654
Cc1ccc(Cl)cc1N1C(=O)CN(S(C)(=O)=O)CC1(C)C(=O)NC1CCCC1 (stereo not given) | 838
O=C(NC1CC1)c1cccc(OCC2CCCN(C(=O)C3CCC3)C2)c1 (stereo not given) | 789
CCn1cc(-c2nc(C)c(C(=O)Nc3ccc(F)c(F)c3)s2)c2cccnc21 | 1070
COc1cc(NC(C)=O)c2ncccc2c1Br | 960
CCOC(=O)c1sc(NC(=O)C(C)(C)C)nc1-c1ccccc1 | 592
Cc1sc(C)c(S(=O)(=O)N2CCCc3ccccc32)c1-c1cc(C(F)(F)F)on1 | 1290
CC(=O)NC(C)c1nc(-c2ccc(Cl)cc2)no1 (stereo not given) | 777
CC1(C)CC(O)CC(C)(C)N1CC(O)COCCOc1ccc(F)cc1 (stereo not given) | 565
CCC(C)NC(=O)CC1CCN(C(=O)c2[nH]c(C)c(C(=O)OC)c2C)CC1 (stereo not given) | 663
O=C(NCCS(=O)(=O)N1CCN(c2ccccc2)CC1)c1ccc(Br)o1 | 807
CC(C(=O)N1CCN(C(=O)c2ccco2)CC1)n1c2ccccc2c2cnn(C)c(=O)c21 (stereo not given) | 746
Cc1ccc(NC(=O)Nc2nc3ccccc3s2)cc1NC(=O)Nc1nc2ccccc2s1 | 1040
Cc1ccc(-c2cn3cccnc3n2)cc1NC(=O)c1ccc(Br)cc1 | 730
CCN1c2ccc(F)cc2C(=O)NC12CCN(C(=O)c1ccc(OC)cc1C)CC2 | 802
Cc1ccc(S(=O)(=O)N2CCCC2C(=O)Nc2nnc(-c3ccc(C)c(C)c3)o2)cc1 (stereo not given) | 872
